In patent US12479820B2, “Pyridin-3-yl derivatives” (Idorsia Pharmaceuticals Ltd, priority 2019, dated 2025) one finds IC50 data, which are given here for 28 compounds.

Each structure is given as a SMILES string.

For the experiment, the target named is T1, human LPA1 receptor (Homo sapiens, UniProt Q92633).
T1 construct: TEV protease site; Gal4-VP16 transcription factor; host or cells: Tango EDG2-bla U2OS cells
T1 sequence (Q92633 whole entry, the tested form may be a part): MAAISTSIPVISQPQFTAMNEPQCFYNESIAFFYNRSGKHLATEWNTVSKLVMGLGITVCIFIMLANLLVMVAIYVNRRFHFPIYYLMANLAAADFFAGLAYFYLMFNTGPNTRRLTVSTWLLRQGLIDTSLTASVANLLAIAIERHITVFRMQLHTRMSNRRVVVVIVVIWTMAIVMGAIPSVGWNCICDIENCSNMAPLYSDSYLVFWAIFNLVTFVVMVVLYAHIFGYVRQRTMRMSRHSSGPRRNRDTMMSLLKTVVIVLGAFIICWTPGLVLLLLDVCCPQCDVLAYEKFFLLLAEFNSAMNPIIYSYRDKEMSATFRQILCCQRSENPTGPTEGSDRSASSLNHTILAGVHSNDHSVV
Nature of the experiment: Beta-arrestin recruitment assay to determine IC50 values for human LPAR1. It is filed as cell-based. To be noted: Tango EDG2-bla U2OS cells, antagonist assay, LPA 18:1 500 nM final. The source says: Beta-Arrestin Recruitment Assay to Determine IC50 Values for Human LPAR1
The Tango™ EDG2-bla U2OS cells are obtained from Invitrogen. These cells contain the human LPA1 receptor cDNA linked to a TEV protease site and a Gal4-VP16 transcription factor integrated into the Tango™ GPCR-bla U2OS parental cell line. This parental cell line stably expresses a beta-arrestin/TEV protease fusion protein and the beta-lactamase (bla) reporter gene under the control of a UAS response element. Upon LPA (agonist) binding, LPA1 receptor gets activated, leading to arrestin-protease recruitment and proteolytic release of the transcription factor: The transcription factor then regulates transcription of a beta-lactamase reporter construct, which is measured upon addition of the live-cell substrate.
10′000 Tango™ EDG2-bla U2OS cells are seeded in a 384-well black with clear bottom plate in 30 μl Freestyle 293 Expression Medium (Invitrogen) and incubated for 20 h at 37° C., 5% CO2. For antagonist assays, 5 μl of test compound (dilution series in DMSO/Freestyle 293 Expression medium/0.1% fatty acid free BSA (Sigma)) or buffer control are added per well and incubated for 30 min at 37° C., 5% CO2. 5 μl of LPA 18:1 (500 nM final) (solution in Freestyle 293 Expression medium/0.1% fatty acid free BSA (Sigma)) are added per well and the plate incubated for 16 h at 37° C., 5% CO2. Cells are then loaded with LiveBLAzer-FRET™ B/G Substrate (Invitrogen) for 2 h in the dark and the fluorescence emission at 460 nm and 530 nm is measured using the SynergyMx reader (BioTek). Following the background subtraction from both channels, the 460/530 nm emission ratio for each well is calculated, then plotted and fitted to a 4-parameter logistic function to obtain IC50 values. IC50 is the concentration of antagonist inhibiting 50% of the maximal response.
For the compound `COC(=O)C(C)(C)CCN1CC(C(=O)Nc2cnc(Cl)cc2OC)(c2ccccc2C(C)C)C1` [Example 18-16, methyl 4-(3-((6-chloro-4-methoxypyridin-3-yl)carbamoyl)-3-(2-isopropylphenyl)azetidin-1-yl)-2,2-dimethylbutanoate], the IC50 is 111 nM. On to `COc1cc(Cl)ncc1NC(=O)C1(c2ccccc2C(C)C)CN(CCC(C)(C)C(=O)O)C1` [Example 18-17, 4-(3-((6-chloro-4-methoxypyridin-3-yl)carbamoyl)-3-(2-isopropylphenyl)azetidin-1-yl)-2,2-dimethylbutanoic acid], for which the IC50 came out at 27 nM. In the case of `CCOc1cc(Cl)ncc1NC(=O)C1(c2ccccc2C(C)C)CN(CCC(C)(C)C(=O)OC)C1` [Example 18-18, methyl 4-(3-((6-chloro-4-ethoxypyridin-3-yl)carbamoyl)-3-(2-isopropylphenyl)azetidin-1-yl)-2,2-dimethylbutanoate] it was 142 nM; in that of `CCOc1cc(Cl)ncc1NC(=O)C1(c2ccccc2C(C)C)CN(CCC(C)(C)C(=O)O)C1` [Example 18-19, 4-(3-((6-chloro-4-ethoxypyridin-3-yl)carbamoyl)-3-(2-isopropylphenyl)azetidin-1-yl)-2,2-dimethylbutanoic acid], 21 nM; in that of `CC(C)Oc1cc(Cl)ncc1NC(=O)C1(c2ccccc2C(C)C)CN(CCC(C)(C)C(=O)O)C1` [Example 18-20, 4-(3-((6-chloro-4-isopropoxypyridin-3-yl)carbamoyl)-3-(2-isopropylphenyl)azetidin-1-yl)-2,2-dimethylbutanoic acid], 16 nM. On to `COC(=O)C(C)(C)CCN1CCC(C(=O)Nc2cnc(Cl)cc2OC)(c2ccccc2C(C)C)CC1` [Example 18-21, methyl 4-(4-((6-chloro-4-methoxypyridin-3-yl)carbamoyl)-4-(2-isopropylphenyl)piperidin-1-yl)-2,2-dimethylbutanoate], for which the IC50 worked out at 19 nM. With `COc1cc(Cl)ncc1NC(=O)C1(c2ccccc2C(C)C)CCN(CCC(C)(C)C(=O)O)CC1` [Example 18-22, 4-(4-((6-chloro-4-methoxypyridin-3-yl)carbamoyl)-4-(2-isopropylphenyl)piperidin-1-yl)-2,2-dimethylbutanoic acid] the figure was 79 nM; with `COc1cc(Br)ncc1NC(=O)C1(c2ccccc2C(C)C)CN(CCC(C)(C)C(=O)O)C1` [Example 18-23, 4-(3-((6-bromo-4-methoxypyridin-3-yl)carbamoyl)-3-(2-isopropylphenyl)azetidin-1-yl)-2,2-dimethylbutanoic acid], 56 nM.

With `CCOC(=O)C(C)(C)CCCN1CC(C(=O)Nc2cnc(Cl)cc2OC)(c2ccccc2C(C)C)C1` [Example 18-24, ethyl 5-(3-((6-chloro-4-methoxypyridin-3-yl)carbamoyl)-3-(2-isopropylphenyl)azetidin-1-yl)-2,2-dimethylpentanoate], the 50% inhibitory concentration (IC50) worked out at 156 nM. With `COc1cc(Cl)ncc1NC(=O)C1(c2ccccc2C(C)C)CN(CCCC(C)(C)C(=O)O)C1` [Example 18-25, 5-(3-((6-chloro-4-methoxypyridin-3-yl)carbamoyl)-3-(2-isopropylphenyl)azetidin-1-yl)-2,2-dimethylpentanoic acid] the figure was 47 nM; with `CCOC(=O)C(C)(C)CCCN1CC(C(=O)Nc2cnc(Cl)cc2OCC)(c2ccccc2C(C)C)C1` [Example 18-26, ethyl 5-(3-((6-chloro-4-ethoxypyridin-3-yl)carbamoyl)-3-(2-isopropylphenyl)azetidin-1-yl)-2,2-dimethylpentanoate], 72 nM; with `CCOc1cc(Cl)ncc1NC(=O)C1(c2ccccc2C(C)C)CN(CCCC(C)(C)C(=O)O)C1` [Example 18-27, 5-(3-((6-chloro-4-ethoxypyridin-3-yl)carbamoyl)-3-(2-isopropylphenyl)azetidin-1-yl)-2,2-dimethylpentanoic acid], 21 nM.

For `COc1cc(Cl)ncc1NC(=O)C1(c2ccccc2C(C)C)CN(CCNS(N)(=O)=O)C1` [Example 18-28, N-(6-chloro-4-methoxypyridin-3-yl)-3-(2-isopropylphenyl)-1-(2-(sulfamoylamino)ethyl)azetidine-3-carboxamide], the IC50 was 17 nM. In the case of `COc1cc(Cl)ncc1NC(=O)C1(c2ccccc2C(C)C)CN(C(=O)CCO)C1` [Example 19-1, N-(6-chloro-4-methoxypyridin-3-yl)-1-(3-hydroxypropanoyl)-3-(2-isopropylphenyl)azetidine-3-carboxamide] it was 127 nM; in that of `COc1cc(Cl)ncc1NC(=O)C1(c2ccccc2C(C)C)CN(C(C)=O)C1` [Example 19-2, 1-acetyl-N-(6-chloro-4-methoxypyridin-3-yl)-3-(2-isopropylphenyl)azetidine-3-carboxamide], 19 nM. In the case of `COc1cc(Cl)ncc1NC(=O)C1(c2ccccc2C(C)C)CN(C=O)C1` [Example 19-3, N-(6-chloro-4-methoxypyridin-3-yl)-1-formyl-3-(2-isopropylphenyl)azetidine-3-carboxamide] it was 9 nM; in that of `COc1cc(Cl)ncc1NC(=O)C1(c2ccccc2C(C)C)CN(C(=O)C2COC2)C1` [Example 19-4, N-(6-chloro-4-methoxypyridin-3-yl)-3-(2-isopropylphenyl)-1-(oxetane-3-carbonyl)azetidine-3-carboxamide], 385 nM; in that of `COc1cc(Cl)ncc1NC(=O)C1(c2ccccc2C(C)C)CN(C(=O)c2cc(O)no2)C1` [Example 19-5, N-(6-chloro-4-methoxypyridin-3-yl)-1-(3-hydroxyisoxazole-5-carbonyl)-3-(2-isopropylphenyl)azetidine-3-carboxamide], 270 nM.

For `COc1cc(Cl)ncc1NC(=O)C1(c2ccccc2C(C)C)CN(C(=O)c2noc(O)n2)C1` [Example 19-6, N-(6-chloro-4-methoxypyridin-3-yl)-1-(5-hydroxy-1,2,4-oxadiazole-3-carbonyl)-3-(2-isopropylphenyl)azetidine-3-carboxamide], the IC50 came to 61 nM. For the compound `COc1cc(Cl)ncc1NC(=O)C1(c2ccccc2C(C)C)CN(C(=O)Cn2nccn2)C1` [Example 19-7, 1-(2-(2H-1,2,3-triazol-2-yl)acetyl)-N-(6-chloro-4-methoxypyridin-3-yl)-3-(2-isopropylphenyl)azetidine-3-carboxamide], the IC50 is 15 nM. In the case of `COc1cc(Cl)ncc1NC(=O)C1(c2ccccc2C(C)C)CN(C(=O)Cn2cc(C)nn2)C1` [Example 19-8, N-(6-chloro-4-methoxypyridin-3-yl)-3-(2-isopropylphenyl)-1-(2-(4-methyl-1H-1,2,3-triazol-1-yl)acetyl)azetidine-3-carboxamide] it was 43 nM.

For `COc1cc(Cl)ncc1NC(=O)C1(c2ccccc2C(C)C)CN(C(=O)Cn2cc(CO)nn2)C1` [Example 19-9, N-(6-chloro-4-methoxypyridin-3-yl)-1-(2-(4-(hydroxymethyl)-1H-1,2,3-triazol-1-yl)acetyl)-3-(2-isopropylphenyl)azetidine-3-carboxamide], the IC50 was 52 nM.

As for `COc1cc(Cl)ncc1NC(=O)C1(c2ccccc2C(C)C)CN(C(=O)Cn2ncnn2)C1` [Example 19-10, 1-(2-(2H-tetrazol-2-yl)acetyl)-N-(6-chloro-4-methoxypyridin-3-yl)-3-(2-isopropylphenyl)azetidine-3-carboxamide], the IC50 is 17 nM. With `COc1cc(Cl)ncc1NC(=O)C1(c2ccccc2C(C)C)CN(C(=O)Cn2ccnn2)C1` [Example 19-11, 1-(2-(1H-1,2,3-triazol-1-yl)acetyl)-N-(6-chloro-4-methoxypyridin-3-yl)-3-(2-isopropylphenyl)azetidine-3-carboxamide] the figure was 107 nM; with `COc1cc(Cl)ncc1NC(=O)C1(c2ccccc2C(C)C)CN(C(=O)Cc2c[nH]nc2O)C1` [Example 19-12, N-(6-chloro-4-methoxypyridin-3-yl)-1-(2-(3-hydroxy-1H-pyrazol-4-yl)acetyl)-3-(2-isopropylphenyl)azetidine-3-carboxamide], 24 nM; with `COc1cc(Cl)ncc1NC(=O)C1(c2ccccc2C(C)C)CN(C(=O)Cc2cc(O)n[nH]2)C1` [Example 19-13, N-(6-chloro-4-methoxypyridin-3-yl)-1-(2-(3-hydroxy-1H-pyrazol-5-yl)acetyl)-3-(2-isopropylphenyl)azetidine-3-carboxamide], 112 nM. With `COc1cc(Cl)ncc1NC(=O)C1(c2ccccc2C(C)C)CN(C(=O)CNS(N)(=O)=O)C1` [Example 19-14, N-(6-chloro-4-methoxypyridin-3-yl)-3-(2-isopropylphenyl)-1-(sulfamoylglycyl)azetidine-3-carboxamide] the figure was 67 nM.

With `COc1cc(Cl)ncc1NC(=O)C1(c2ccccc2C(C)C)CN(C(=O)CNS(C)(=O)=O)C1` [Example 19-15, N-(6-chloro-4-methoxypyridin-3-yl)-3-(2-isopropylphenyl)-1-((methylsulfonyl)glycyl)azetidine-3-carboxamide], the half-maximal inhibitory concentration (IC50) amounted to 37 nM.
